Read-outs that look alike come from different tables or passages of the source.
Tests used:
[1] = system: adrenocortical steroid synthesis; experiment: ACTH-stimulation test in dexamethasone-suppressed rats, plasma adrenocortical steroids by ELISA; settings: for inhibition of adrenocortical steroid synthesis (FIG. 10): rats, 3 mg/kg IV dose
Description: Briefly, rats were pretreated with dexamethasone (0.2 mg/kg intravenously) to reduce endogenous ACTH production and minimize baseline adrenocortical steroid concentrations. Two hours later and after receiving a second dexamethasone dose, rats received ACTH1-24 (IV) and the desired dose of either etomidate or dimethoxy-etomidate solubilized in water containing a 1:1 molar ratio of Captisol (Ligand Pharmaceuticals, San Diego, Calif.) or water containing Captisol vehicle alone as a control. Fifteen minutes later, a blood sample was drawn and ACTH-stimulated adrenocortical steroid concentrations in the plasma were determined using enzyme-linked immunosorbent assays and a 96-well plate reader (Molecular Devices, Sunnyvale, Calif.).

11β-hydroxylase [2] = target: T1, 11β-hydroxylase (Homo sapiens, UniProt P15538); settings: previously reported work; cited from earlier work
T1 sequence (P15538 25-503): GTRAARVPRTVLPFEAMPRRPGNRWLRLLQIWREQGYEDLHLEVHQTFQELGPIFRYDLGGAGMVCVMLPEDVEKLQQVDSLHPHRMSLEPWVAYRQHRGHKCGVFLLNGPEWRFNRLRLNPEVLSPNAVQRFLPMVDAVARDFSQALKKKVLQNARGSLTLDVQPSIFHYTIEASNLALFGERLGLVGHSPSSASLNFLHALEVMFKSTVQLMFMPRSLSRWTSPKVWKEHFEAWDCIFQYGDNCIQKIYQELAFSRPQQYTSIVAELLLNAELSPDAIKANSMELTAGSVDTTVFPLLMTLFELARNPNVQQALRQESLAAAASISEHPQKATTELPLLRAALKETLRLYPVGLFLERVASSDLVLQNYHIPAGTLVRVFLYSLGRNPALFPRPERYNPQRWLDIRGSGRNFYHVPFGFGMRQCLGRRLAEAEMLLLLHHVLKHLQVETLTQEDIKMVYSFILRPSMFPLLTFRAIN

11β-hydroxylase [3] = target: T2, 11β-hydroxylase (Rattus norvegicus, UniProt P15393); experiment: Displacement of [3H]-etomidate from adrenal membranes; format: binding
T2 construct: tissue BioreclamationlVT; host or cells: membranes (homogenate pellet) from Sprague-Dawley rat adrenal glands
T2 sequence (P15393 25-499): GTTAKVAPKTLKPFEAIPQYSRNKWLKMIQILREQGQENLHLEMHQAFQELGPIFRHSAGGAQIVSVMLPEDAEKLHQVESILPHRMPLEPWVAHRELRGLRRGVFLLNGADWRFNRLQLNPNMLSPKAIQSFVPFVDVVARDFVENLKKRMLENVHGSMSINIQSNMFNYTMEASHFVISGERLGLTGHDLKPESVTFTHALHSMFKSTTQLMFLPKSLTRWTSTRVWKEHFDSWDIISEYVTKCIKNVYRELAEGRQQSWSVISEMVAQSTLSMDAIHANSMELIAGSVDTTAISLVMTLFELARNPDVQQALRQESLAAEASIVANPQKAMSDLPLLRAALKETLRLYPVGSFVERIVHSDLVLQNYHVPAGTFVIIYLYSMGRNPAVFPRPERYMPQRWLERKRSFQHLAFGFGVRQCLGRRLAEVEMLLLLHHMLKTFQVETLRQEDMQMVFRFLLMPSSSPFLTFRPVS
Description: Briefly, 4 adrenal glands were thawed for each preparation, placed on a glass stand, cut into pieces, and then added to ice-cold preparation buffer (HEPES 10 mM, EDTA 1 mM, leupeptin 10 μg/mL, chymostatin 10 μg/mL, pepstatin A 10 μg/mL, aprotinin 2 μg/mL, polymethanesulfonyl fluoride 1 mM and ethanol 10 μg/mL). After homogenization, carboxylesterases were inactivated by incubating with 1 mM diisopropyl fluorophosphate (Sigma-Aldrich) for 60 min. The mixture was then centrifuged and the resulting pellet was washed twice. The final pellet was then re-suspended in buffer by manual homogenization, passed through a 23-gauge needle three times, aliquoted into 1 mL eppendorf tubes, and stored at −80° C. until used. The protein concentration in these samples was quantified using a Pierce BCA Protein Assay Kit (ThermoFisher, Rockford, Ill., USA). All binding experiments were performed in glass vials at room temperature with the final concentration of protein adjusted to 0.07 mg/mL. The reported data were obtained using 3 separate preparations.
After equilibration, the mixture was passed through a pre-soaked (with 0.5% polyethylenimine in water for 2 h) 25 mm GF/B glass fiber filter under suction, the filter was immediately washed twice with 5 mL of assay buffer. After drying under a heat lamp for two hours, each filter was transferred to a scintillation vial. Liquiscint scintillation cocktail (National Diagnostics, Atlanta, Ga., USA) was added to the vial and the radioactivity in the vial quantified using a Packard Tri-Carb liquid scintillation counter (Meriden, Conn., USA). The concentration-response relationships for inhibition of [^3H]-etomidate by etomidate and dimethoxy-etomidate were fit to one and two site models, respectively, using Prism 6 for Mac OS X.

Sprague-Dawley rats [4] = experiment: Loss of righting reflexes (LORR) assay, sedative-hypnotic activity; settings: for ED50: Rattus norvegicus, iv, read-out: ED50 for loss of righting reflexes; for dose producing loss of righting reflexes in all rats: IV
Description: Briefly, the desired dose of drug in dimethyl sulfoxide vehicle (0.1-0.3 mL) was rapidly (<5 s) injected through a 24-gauge intravenous catheter placed in a tail vein. This was followed by a 0.5-mL normal saline flush. Immediately after injection, rats were turned supine. […] The duration of LORR was defined as the time from drug injection until the animal spontaneously righted itself onto all four legs.

Sprague-Dawley rats [5] = experiment: Myoclonic movements in rats, two-way crossover; format: in vivo, rat; settings: 3 mg/kg IV; for occurrence of myoclonus and LoRR: 30-minute observation, n=8
Description: Rats were immediately tested for LoRR and the number of myoclonic events was recorded during each 5-minute epoch for 30 minutes. A myoclonic event was defined as an unproductive (i.e., not associated with LoRR, feeding, or grooming behaviors) movement. Each distinct jerk or tremor constituted a single event. To avoid potentially confounding movements associated with bruxing, boggling, sniffing, and grooming, myoclonus was only considered to occur in the head and jaw when there was the presence of abnormal tongue lolling and jaw movement, or a sharp head movement out of sync with the rats breathing. At the end of the 30-minute observation period, rats were returned to their cages. After a 24-hour recovery period, each rat was crossed over to the other drug group and the experiment repeated.

α1β3γ2L GABAA receptor = target: T3, α1β3γ2L GABAA receptor (Homo sapiens, UniProt P14867+P28472); experiment: GABAA receptor electrophysiology, potentiation of EC5 GABA-evoked currents in Xenopus oocytes; format: cell-based; settings: for maximum peak current at high drug concentrations, % of that produced by 1 mM GABA: Hill fit, EC5 GABA + drug
T3 construct: expressed in transfected cells; host or cells: Xenopus oocytes injected with mRNA
Description: Oocytes were then incubated in ND96 buffer (96 mM NaCl, 2 mM KCl, 1.8 mM CaCl2, 1 mM MgCl2, 5 mM HEPES, pH=7.4) containing 0.05 mg/mL of gentamicin for 18 to 48 hours at 18° C. before electrophysiological study. […] For each oocyte, a GABA concentration-peak current response curve was generated to define the GABA concentration that elicits 5% of the current evoked by 1 mM GABA (i.e., EC5 GABA). The effect of drug (etomidate or dimethoxy-etomidate) was then defined in that oocyte by perfusing it with EC5 GABA alone for 15-20 s followed immediately by EC5 GABA+drug at the desired concentration for 20-60 s. The resulting current response was then recorded. The peak current response recorded in the presence of EC5 GABA+drug was then normalized to the peak current response evoked by 1 mM GABA. Between electrophysiological recordings, oocytes were perfused with buffer for at least 3 min to remove GABA (and drug, if present) and to allow receptors to recover from desensitization.
In these fits, the minimum was constrained to 5% (by definition, for EC5 evoked currents).

[6] = 50 mg/kg intravenous dose; cited from earlier work
[7] = 0.3 mg/kg IV, 15 min, vs vehicle control
[8] = 3 mg/kg IV, 15 min, vs vehicle control
[9] = 50 mg/kg IV, vs vehicle control

T3 sequence (P14867 28-456): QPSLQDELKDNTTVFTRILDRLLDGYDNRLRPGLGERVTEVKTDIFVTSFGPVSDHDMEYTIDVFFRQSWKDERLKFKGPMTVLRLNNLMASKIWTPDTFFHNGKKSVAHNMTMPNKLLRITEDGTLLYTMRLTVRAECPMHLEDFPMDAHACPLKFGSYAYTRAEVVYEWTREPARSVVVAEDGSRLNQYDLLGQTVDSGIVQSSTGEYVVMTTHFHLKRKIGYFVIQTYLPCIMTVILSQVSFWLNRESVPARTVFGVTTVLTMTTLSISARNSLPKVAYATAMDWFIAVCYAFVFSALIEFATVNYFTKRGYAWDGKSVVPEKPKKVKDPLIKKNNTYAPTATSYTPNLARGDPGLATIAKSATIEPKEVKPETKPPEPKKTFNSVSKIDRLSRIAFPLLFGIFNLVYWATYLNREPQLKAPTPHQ
T3 sequence (P28472 26-473): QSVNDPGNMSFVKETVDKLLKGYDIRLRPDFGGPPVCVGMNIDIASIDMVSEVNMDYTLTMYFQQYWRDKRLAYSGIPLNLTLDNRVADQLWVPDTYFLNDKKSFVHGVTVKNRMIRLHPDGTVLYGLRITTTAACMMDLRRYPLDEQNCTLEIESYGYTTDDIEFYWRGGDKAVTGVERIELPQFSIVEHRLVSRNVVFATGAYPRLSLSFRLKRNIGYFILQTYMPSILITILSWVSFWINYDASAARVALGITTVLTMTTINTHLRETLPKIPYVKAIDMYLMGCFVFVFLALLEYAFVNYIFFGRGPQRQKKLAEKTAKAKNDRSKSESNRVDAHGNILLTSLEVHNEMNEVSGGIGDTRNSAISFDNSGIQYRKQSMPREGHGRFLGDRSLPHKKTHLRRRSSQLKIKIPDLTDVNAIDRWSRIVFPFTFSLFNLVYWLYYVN
T3 sequence (P18507 40-475 partner): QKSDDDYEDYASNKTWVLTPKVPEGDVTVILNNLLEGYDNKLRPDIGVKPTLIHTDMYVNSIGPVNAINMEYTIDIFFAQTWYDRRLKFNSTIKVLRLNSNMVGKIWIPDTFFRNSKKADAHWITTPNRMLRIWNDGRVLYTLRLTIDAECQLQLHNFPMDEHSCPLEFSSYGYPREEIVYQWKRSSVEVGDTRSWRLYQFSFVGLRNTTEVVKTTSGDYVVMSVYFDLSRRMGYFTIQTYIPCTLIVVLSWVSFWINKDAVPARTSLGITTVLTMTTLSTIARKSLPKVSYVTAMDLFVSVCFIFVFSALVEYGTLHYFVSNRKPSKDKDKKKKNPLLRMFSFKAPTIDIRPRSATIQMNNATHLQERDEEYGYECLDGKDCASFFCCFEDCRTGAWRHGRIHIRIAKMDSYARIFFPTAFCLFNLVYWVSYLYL

Row | Structure (SMILES) | inhibition of adrenocortical steroid synthesis (FIG. 10) [1] | IC50 (11β-hydroxylase [3]) [µM] | effect on ACTH-stimulated plasma 11-deoxycorticosterone concentration ([1]; 0.3 mg/kg IV) | effect on ACTH-stimulated plasma pregnenolone concentration ([1]; 0.3 mg/kg IV) | effect on ACTH-stimulated plasma progesterone concentration ([1]; 0.3 mg/kg IV) | reduction of ACTH-stimulated plasma corticosterone concentration [1, 7] | effect on ACTH-stimulated plasma 11-deoxycorticosterone concentration ([1]; 3 mg/kg IV) | effect on ACTH-stimulated plasma pregnenolone concentration ([1]; 3 mg/kg IV) | effect on ACTH-stimulated plasma progesterone concentration ([1]; 3 mg/kg IV) | ACTH-stimulated plasma corticosterone concentration ([1]; 3 mg/kg IV, 15 min) [ng/m] | reduction of ACTH-stimulated plasma corticosterone concentration [1, 8] [%] | ED50 (Sprague-Dawley rats [4]) [mg/kg] | dose producing loss of righting reflexes in all rats (Sprague-Dawley rats [4]) [mg/kg] | occurrence of myoclonus and LoRR (Sprague-Dawley rats [5]) | maximum peak current at high drug concentrations, % of that produced by 1 mM GABA (α1β3γ2L GABAA receptor) [%] | further results
1 | CCOC(=O)c1cncn1[C@H](C)c1cccc2ccccc12 [Example 4, ethyl (R)-1-(1-(naphthalen-1-yl)ethyl)-1H-imidazole-5-carboxylate] | similarly inhibited adrenocortical steroid synthesis | – | – | – | – | – | – | – | – | – | – | – | – | – | – | –
2 | CCOC(=O)c1cncn1[C@H](C)c1ccc2ccccc2c1 [Example 5, ethyl (R)-1-(1-(naphthalen-2-yl)ethyl)-1H-imidazole-5-carboxylate] | similarly inhibited adrenocortical steroid synthesis | – | – | – | – | – | – | – | – | – | – | – | – | – | – | –
3 | CCOC(=O)c1cccn1[C@H](C)c1ccccc1 [carboetomidate, ethyl (R)-1-(1-phenylethyl)-1H-pyrrole-2-carboxylate] | – | – | – | – | – | – | – | – | – | – | – | – | – | – | – | binding affinity to 11β-hydroxylase and adrenocortical inhibitory potency relative to etomidate (11β-hydroxylase [2]): reduced by three-orders of magnitude
4 | CCOC(=O)c1cncn1[C@H](C)c1cc(OC)cc(OC)c1 [dimethoxy-etomidate, Ethyl (R)-1-(1-(3,5-dimethoxyphenyl)ethyl)-1H-imidazole-5-carboxylate] | – | 0.0079 | neither etomidate nor dimethoxy-etomidate altered | neither etomidate nor dimethoxy-etomidate altered | neither etomidate nor dimethoxy-etomidate altered | 63% | without significantly affecting | without significantly affecting | without significantly affecting | 19±10 | 87 | 72 ± 13 | 100 | produced no myoclonic events or LoRR in any rat | 11 | IC50 (11β-hydroxylase [3]; read-out: IC50 for displacement of [3H]-etomidate, low affinity site, 2 nM [3H]-etomidate, two site fit): 4.27 µM; high affinity site share of all sites (11β-hydroxylase [3]; two site fit): 55%; ACTH-stimulated plasma corticosterone concentration ([1]; 0.3 mg/kg IV, 15 min): 56 ± 13 ng/mL; ACTH-stimulated plasma 11-deoxycorticosterone concentration ([1]; 50 mg/kg IV): 24 ± 12 ng/mL; ACTH-stimulated plasma corticosterone concentration ([1]; 50 mg/kg IV): 12 ± 1 ng/mL; effect on ACTH-stimulated plasma pregnenolone concentration ([1]; 50 mg/kg IV): unaffected; effect on ACTH-stimulated plasma progesterone concentration ([1]; 50 mg/kg IV): unaffected; reduction of ACTH-stimulated plasma 11-deoxycorticosterone concentration [1, 9]: 69%; reduction of ACTH-stimulated plasma corticosterone concentration [1, 9]: 95%; time required for righting reflexes to return (LoRR duration) (Sprague-Dawley rats [4]; 100 mg/kg IV): 2.2 ± 0.7 min; sedative-hypnotic potency compared to etomidate (Sprague-Dawley rats [4]; from LoRR ED50s): two order of magnitude reduction; EC50 (α1β3γ2L GABAA receptor): 210 µM; magnitude of peak current enhancement relative to that produced by the same concentration of etomidate (α1β3γ2L GABAA receptor; EC5 GABA evoked currents): ≤ ⅛
5 | CCOC(=O)c1cncn1[C@H](C)c1ccccc1 [etomidate, ethyl (R)-1-(1-phenylethyl)-1H-imidazole-5-carboxylate, reference compound] | – | 0.021 | neither etomidate nor dimethoxy-etomidate altered | neither etomidate nor dimethoxy-etomidate altered | neither etomidate nor dimethoxy-etomidate altered | no significant effect | without significantly affecting | without significantly affecting | without significantly affecting | 19±11 | 87 | 0.77 ± 0.17 | ≥ 1 | produced myoclonus and LORR in all rats | 103 | time required for righting reflexes to return (LoRR duration) (Sprague-Dawley rats [4]; 3 mg/kg IV, highest etomidate dose studied): 16.3 ± 0.5 min; lethality [6]: lethal; maximum mean (±SEM) number of myoclonic events per rat (Sprague-Dawley rats [5]; 5-10-minute epoch): 13.8±2.2; mean (±SEM) total number of myoclonic events in each rat (Sprague-Dawley rats [5]; 30-minute observation period): 34±2.4

Source: patent US11098017B2, “Compounds for treating disorders associated with abnormal steroidogenesis” (The General Hospital Corporation, priority 2017, dated 2021)
